Patent US20250163104A1, “MACROCYCLIC IMMUNOMODULATORS” (priority 2021, published 2025)
pIC50: −log10 of the molar value. Where a SMILES comes first, the peptide text is derived from it. Bridges are numbered along the chain shown (N, C = ends). [ ]: non-standard residue; d: D form. The star is where a group is joined. Bip = N[C@@H](Cc1ccc(-c2ccccc2)cc1)C(=O)O; Phe(3-Me) = Cc1cccc(C[C@H](N)C(=O)O)c1; 4Pal = N[C@@H](Cc1ccncc1)C(=O)O; Cit = NC(=O)NCCC[C@H](N)C(=O)O; Carboxymethyl = O=C(O)C*; Nle = CCCC[C@H](N)C(=O)O; Orn = NCCC[C@H](N)C(=O)O; Dab = NCC[C@H](N)C(=O)O

What follows are compounds tested against T1, human PD-1 / PD-L1-Ig binding on Jurkat cell line over-expressing human PD-1 (Jurkat-PD-1) (Homo sapiens, UniProt Q15116) (assay: Jurkat-PD-1 Cell Binding High-Content Screening Assay (CBA)). Conditions: Jurkat-PD-1 cells, PE-labeled PD-L1-Ig 20 nM final; read-out: Jurkat HPD1_PDL1 IC50.
T1 construct: expressed in transfected cells; host or cells: Jurkat
T1 sequence (Q15116 25-288): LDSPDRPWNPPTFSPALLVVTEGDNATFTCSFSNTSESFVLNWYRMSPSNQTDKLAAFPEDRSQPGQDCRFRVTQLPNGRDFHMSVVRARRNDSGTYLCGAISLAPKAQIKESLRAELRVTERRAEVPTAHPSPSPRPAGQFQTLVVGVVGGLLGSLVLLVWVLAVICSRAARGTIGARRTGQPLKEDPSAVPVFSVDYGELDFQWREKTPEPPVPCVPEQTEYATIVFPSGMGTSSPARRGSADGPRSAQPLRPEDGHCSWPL
Format: cell-based
Outline: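 Jurkat cells over-expressing human PD-1, in DMEM/10% FCS, pre-incubated with compound 2 h at 37° C. PE-labeled human PD-L1-Ig (20 nM final) added for 1 h; cells fixed in paraformaldehyde with Hoechst 33342 nuclear stain, washed, and bound fluorescence quantified by high-content imaging.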

Structure (SMILES) | pIC50
CCCC[C@@H]1NC(=O)[C@H](CCN)NC(=O)[C@@H](CC(C)C)NC(=O)[C@H](CCCN)NC(=O)[C@H](CCCNC(N)=O)NC(=O)[C@H](Cc2ccc(-c3ccccc3)cc2)NC(=O)[C@H](C(C)C)NC(=O)[C@H](Cc2cccc(C)c2)NC(=O)[C@H](CC(=O)O)NC(=O)[C@H](Cc2ccc(OCC(=O)O)cc2)NC(=O)[C@H](Cc2ccncc2)NC(=O)CSC[C@@H](C(=O)N[C@@H](C)C(N)=O)NC(=O)[C@H]([C@@H](C)O)NC(=O)[C@H](C(C)C)NC1=O [Compound 1195] ({CH2CO}-[4Pal]Y(Carboxymethyl)D[Phe(3-Me)]V[Bip][Cit][Orn][dL][Dab][Nle]VTCA-NH2; thioether N-14) | 7.86
Cc1cccc(C[C@@H]2NC(=O)[C@H](CC(=O)O)NC(=O)[C@H](Cc3ccc(OCC(=O)O)cc3)NC(=O)[C@H](Cc3ccncc3)NC(=O)CSC[C@@H](C(=O)N[C@@H](C)C(N)=O)NC(=O)[C@H]([C@@H](C)O)NC(=O)[C@H](C(C)C)NC(=O)[C@H](CC3CCCCC3)NC(=O)[C@H](CCN)NC(=O)[C@@H](CC(C)C)NC(=O)[C@H](CCCN)NC(=O)[C@H](CCCNC(N)=O)NC(=O)[C@H](Cc3ccc(-c4ccccc4)cc3)NC(=O)[C@H](C(C)C)NC2=O)c1 [Compound 1196] | 8.09
CCCC[C@@H]1NC(=O)[C@H](CCN)NC(=O)[C@@H](CC(C)C)NC(=O)[C@H](CCCN)NC(=O)[C@H]([C@@H](C)CC)NC(=O)[C@H](Cc2ccc(-c3ccccc3)cc2)NC(=O)[C@H](C(C)C)NC(=O)[C@H](Cc2cccc(C)c2)NC(=O)[C@H](CC(=O)O)NC(=O)[C@H](Cc2ccc(OCC(=O)O)cc2)NC(=O)[C@H](Cc2ccncc2)NC(=O)CSC[C@@H](C(=O)N[C@@H](C)C(N)=O)NC(=O)[C@H]([C@@H](C)O)NC(=O)[C@H](C(C)C)NC1=O [Compound 1197] | 7.92
CC[C@H](C)[C@@H]1NC(=O)[C@H](Cc2ccc(-c3ccccc3)cc2)NC(=O)[C@H](C(C)C)NC(=O)[C@H](Cc2cccc(C)c2)NC(=O)[C@H](CC(=O)O)NC(=O)[C@H](Cc2ccc(OCC(=O)O)cc2)NC(=O)[C@H](Cc2ccncc2)NC(=O)CSC[C@@H](C(=O)N[C@@H](C)C(N)=O)NC(=O)[C@H]([C@@H](C)O)NC(=O)[C@H](C(C)C)NC(=O)[C@H](CC2CCCCC2)NC(=O)[C@H](CCN)NC(=O)[C@@H](CC(C)C)NC(=O)[C@H](CCCN)NC1=O [Compound 1198] | 7.81

Compounds with a higher pIC50, results first:

pIC50 | Structure (SMILES)
8.39 | CCCC[C@@H]1NC(=O)[C@H](CCN)NC(=O)[C@@H](CC(C)C)NC(=O)[C@H](CCCN)NC(=O)[C@H](C(C)C)NC(=O)[C@H](Cc2ccc(-c3ccccc3)cc2)NC(=O)[C@H](C(C)C)NC(=O)[C@H](Cc2cccc(C)c2)NC(=O)[C@H](CC(=O)O)NC(=O)[C@H](Cc2ccc(OCC(=O)O)cc2)NC(=O)[C@H](Cc2ccncc2)NC(=O)CSC[C@@H](C(=O)N[C@@H](C)C(N)=O)NC(=O)[C@H]([C@@H](C)O)NC(=O)[C@H](C(C)C)NC1=O [Compound 1199] ({CH2CO}-[4Pal]Y(Carboxymethyl)D[Phe(3-Me)]V[Bip]V[Orn][dL][Dab][Nle]VTCA-NH2; thioether N-14)
8.27 | Cc1cccc(C[C@@H]2NC(=O)[C@H](CC(=O)O)NC(=O)[C@H](Cc3ccc(OCC(=O)O)cc3)NC(=O)[C@H](Cc3ccncc3)NC(=O)CSC[C@@H](C(=O)N[C@@H](C)C(N)=O)NC(=O)[C@H]([C@@H](C)O)NC(=O)[C@H](C(C)C)NC(=O)[C@H](CC3CCCCC3)NC(=O)[C@H](CCN)NC(=O)[C@@H](CC(C)C)NC(=O)[C@H](CCCN)NC(=O)[C@H](C(C)C)NC(=O)[C@H](Cc3ccc(-c4ccccc4)cc3)NC(=O)[C@H](C(C)C)NC2=O)c1 [Compound 1200]
